Where a SMILES comes first, the peptide text is derived from it. Where no end group is shown, it is not given here.
System: SARS-CoV-2
Conditions: 48 h; for inhibition of viral infection: 80 μM peptide, Vero E6 cells

Molecule | inhibition of viral infection [%] | EC50 [µM]
DQTKFPIVNAEL-OH [DL12] | 99 | 5
C[C@H](NC(=O)[C@@H](N)CCCNC(=N)N)C(=O)NCC(=O)N[C@@H](CCCCN)C(=O)O [RK4, RAGK] (H-RAGK-OH; N-terminus assumed) | 99 | 10
SDWKTD [SD6, SDWKTD] | 98 | 6.4
HPVTGQF [HF7, HPVTGQF] | 89 | 11.4

Reference: patent US12076364B2, “Use of interference peptide in preparation of anti-SARS-CoV-2 medicament” (KUNMING INSTITUTE OF ZOOLOGY, CHINESE ACADEMY OF SCIENCES, priority 2020, dated 2024)
